Consider four compounds from patent publication US20260294305A1, “METHOD FOR EX VIVO MEASURING GLOMERULAR FILTRATION RATE IN A SUBJECT” (Assistance Publique - Hôpitaux de Paris, priority 2023, published 2026).

The structures appear in SMILES notation. “And” between values parts separate entries of the source, which are not always exact repeats. Equal entries are not always repeated.

The conditions of data set [1]: more specifically by glomerular filtration; cited from earlier work.
Data set [2] is described as follows: GFR measurement with iohexol clearance (mGFR), living kidney donor candidates. The class given is in vivo. Here is the method: (§1) All living kidney donor candidates investigated in Nephrology Department between July 2016 and October 2022, were eligible for inclusion. In accordance with the KDIGO guidelines (Lentine K L et al. ([11])), GFR was measured in all these individuals from iohexol clearance. […] The CT urography had to include 4 polychromatic acquisition phases (unenhanced, arterial, nephrographic, and excretory phases) with a monophasic injection of iomeprol at 350 or 400 mg of iodine per milliliter (Iomeron® 350 or 400, Bracco Imaging, Milano, Italy).
(§2) After a 5 mL bolus injection of iohexol (300 mg/L Omnipaque®; GE Healthcare, France), and an equilibration period (time the tracer takes to distribute in the extracellular compartment), blood and urine samples were collected over four to six consecutive clearance periods. We performed six 30-min periods after a 90-min equilibration period until July 2019, then four 40-min periods after a 120-min equilibration. The concentrations of iohexol in serum and urine were determined by high-performance liquid chromatography (HPLC) as previously described (Cavalier E et al. ([12])). Measured GFR (mGFR) was the mean of the four to six clearance-period values calculated as follows: U×V/P, where U is the concentration of iohexol in the urine collected during the period, V is the urinary flow rate during the period, and P is the serum concentration of iohexol at mid period. Given the negative bias of this GFR measurement method (Seegmiller J C et al. ([13]), Stehlé T et al. ([14])), the following correction was used: mGFR=1.15×iohexol urinary clearance+1.3 (Stehlé T et al. ([14])). If voiding was irregular or incomplete or in case of urine loss, mGFR was calculated with iohexol plasma clearance determined from the plasma disappearance curve, with Bröchner-Mortensen correction model for the missing early compartment (Bröchner-Mortensen J. A ([15])).

The nature of data set [3]: GFR measurement with iohexol clearance, chronic kidney disease patients. The class given is in vivo. The conditions noted are these: mean ± SD, 28 CKD patients. Here is the method:
as §2, with “Given the negative bias of this GFR measurement method (Seegmiller J C et al. ([13]), Stehlé T et al. ([14])), the following correction was used: mGFR=1.15×iohexol urinary clearance+1.3 (Stehlé T et al. ([14])).” left out, “([15])). […]” for “([15])).”
Iohexol clearance was measured as previously described in the example 1.

Another data set has as its system plasma proteins. The conditions noted are these: cited from earlier work.
The conditions of data set [4]: cited from earlier work.
The conditions of data set [5]: after a bolus injection; cited from earlier work.
Data set [6] in a line: GFR measurement with iomeprol clearance assessed by CT urography (CT-mGFR), living kidney donor candidates. The class given is in vivo. Here is the method: This is a cross-sectional study using data from kidney donor candidates who were screened in hospital between July 2016 and October 2022, with both GFR measurement by iohexol clearance, and kidney morphology assessment by CT urogaphy.
as §1
CT-mGFR was assessed by the same U×V/P calculation used to determine the urinary clearance of iohexol: the amount of iomeprol excreted through the urinary system during a given period of time was divided by the mean serum iomeprol concentration during the same period. The blood and urine concentration of iomeprol were assessed by attenuation measurement (Hounsfield Units, HU) in the different areas of interest. The time periods were derived from the acquisition time of the different phases. […] Manual segmentations of bladder, upper urinary tracts and kidneys were performed using the Advantage Windows software (Advantage Window v4.7; GE Healthcare, Buc, France), using different thresholds depending on the CT phase and then manually finalized. For non-contrast and portal venous phase: only a lower limit was set to 0 HU, in order to exclude fat pixels. For excretory phases: a specific threshold was adapted for each patient based on visual analysis in order to reduce extra-urinary pixels as much as possible. Also, the lower threshold used for upper excretory tract was used as the higher threshold for kidney segmentation to avoid overlap in segmentations. The urinary excretion rate of iomeprol between arterial and excretory phases (U×V, expressed as HU/min) was calculated from urinary excretion of iomeprol into the bladder (Uexcr-Bladder), urinary excretion of iomeprol into the upper excretory tract (calyces, pelvis, ureters) (Uexcr-tract), and urinary excretion of iomeprol into the kidney tubules (Uexcr-tubules): U×V=Uexcr-Bladder+Uexcr-tract+Uexcr-tubules. Uexcr-bladder was the volume of the bladder at the excretory phase (Bladder-Volume) multiplied by the mean CT-attenuation of the bladder at the excretory phase (HU-Bladder-excr) minus the CT-attenuation of the urine in bladder at the unenhanced phase (HU-Bladder-unenhanced), then divided by the time period between the excretory phase and the arterial phase (time period): Uexcr-Bladder=Bladder-volume×(HU-Bladder-excr−HU-Bladder-unenhanced)/time period. When the bladder was not included on the unenhanced phase, urine CT-attenuation could be measured on the nephrographic phase, the urine density at the nephrographic phase being slightly higher than at the unenhanced phase, but without clinical consequence on the CT-mGFR calculation. Uexcr-tract was determined in the same way by studying the upper excretory tract (calyces, pelvis, ureters) instead of the bladder. Uexcr-tubules was the volume of both kidneys (Kidney-volumes) multiplied by mean CT-attenuation of kidneys at the excretory phase (HU-Kidney-excr) minus mean CT-attenuation of kidneys at the unenhanced phase (HU-Kidney-unenhanced), then divided by time period: Uexcr-tubules=Kidney-volumes×(HU-Kidney-excr-HU-Kidney-unenhanced)/time period. The denominator of the U×V/P equation, was the calculated serum iomeprol concentration at the midpoint of the period between the arterial and excretory phases. At each phase, the difference between the CT attenuation of the aorta and the one at the unenhanced phase was the surrogate for the serum iomeprol concentration. […]

Consider `CC(=O)N(CC(O)CN(C(C)=O)c1c(I)c(C(=O)NCC(O)CO)c(I)c(C(=O)NCC(O)CO)c1I)c1c(I)c(C(=O)NCC(O)CO)c(I)c(C(=O)NCC(O)CO)c1I` (stereo not shown) [iodixanol], for which the Route of elimination entry in data set [1] was “eliminated almost exclusively by the urinary excretion”.

For `CN(CC(O)CO)C(=O)c1c(I)c(NC(=O)C(CO)CO)c(I)c(C(=O)N(C)CC(O)CO)c1I` (stereo not shown) [iobitridol], in data set [1], the Route of elimination entry is “eliminated almost exclusively by the urinary excretion”.

As to `CC(=O)N(CC(O)CO)c1c(I)c(C(=O)NCC(O)CO)c(I)c(C(=O)NCC(O)CO)c1I` (stereo not shown) [iohexol], in data set [2] (max), the “mGFR (iohexol clearance), maximum” value was 140.2 ml/min/1.73 m^2. In addition, the “mGFR (iohexol clearance)” value in data set [2] (mean ± SD, mGFR=1.15×iohexol urinary clearance+1.3) is reported as 99.7±19.1 ml/min/1.73 m^2. Also, the “mGFR (iohexol clearance), minimum” value in data set [2] (min) came out at 59.9 ml/min/1.73 m^2. For the same compound, the “mGFR, ml/min, mean ± SD” value in data set [2] (study population, Table 1) came to 99.7 ± 19.1 mL/min. Also, the “Iohexol clearance-measured GFR” value in data set [3] is 46.0 mL/min/1.73 m2 and 46.0 ± 15.8 mL/min/1.73 m2.

For `CN(C(=O)CO)c1c(I)c(C(=O)NCC(O)CO)c(I)c(C(=O)NCC(O)CO)c1I` (stereo not shown) [iomeprol], in the data set with plasma proteins, the Plasma protein binding result was “does not bind measurably to plasma proteins”. Further, the Water solubility entry in data set [4] is on record as “hydrosoluble”. Besides, in data set [5], the “Correlation between its clearance and that of inulin” value is reported as “very good correlation”; the Extra-renal clearance result is “negligible”; the Plasma concentration decline entry is reported as “declined biexponentially”. The “Serum iomeprol concentrations assessed at the arterial phase” value in data set [6] (example patient, 0 min, aorta attenuation minus unenhanced) stood at 210.2 HU. Also, in data set [6] (example patient, 0.77 min, aorta attenuation minus unenhanced), the “Serum iomeprol concentrations assessed at the nephrographic phase” value is on record as 88.3 HU. In data set [6] (example patient, 9.47 min, aorta attenuation minus unenhanced), the “Serum iomeprol concentrations assessed at the excretory phase” value came to 46.8 HU. In data set [6] (example patient, mid-period between arterial and excretory phases), the “Ln (iomeprol mid-period)” value is 4.396. In addition, the “CT-mGFR, maximum” value in data set [6] (max) is listed as 174.0 ml/min/1.73 m^2. Moreover, the “Mean CT-mGFR (iomeprol clearance assessed by CT urography)” value in data set [6] (mean ± SD, n=75 living kidney donor candidates) is on record as 100.9±19.5 ml/min/1.73 m^2. Besides, the “CT-mGFR, minimum” value in data set [6] (min) is 60.8 ml/min/1.73 m^2.
